Experimental data published in PubChem BioAssay (NCI).
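How tested: cells in 96-well plates exposed to compound for 48 hours at five concentrations. GI50 marks 50% less growth. TGI denotes the concentration required for complete inhibition of growth.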

Tests used:
Test in all cases: inhibition of tumour cell growth, NCI panel, 48 h
TK-10 renal = test system: TK-10 renal
SK-OV-3 ovarian = test system: SK-OV-3 ovarian
SR leukemia = test system: SR leukemia
CCRF-CEM leukemia = test system: CCRF-CEM leukemia
HOP-62 NSCLC = test system: HOP-62 NSCLC
HCT-116 colon = test system: HCT-116 colon
NCI-H460 lung = test system: NCI-H460 lung
OVCAR-8 ovarian = test system: OVCAR-8 ovarian
HCT-15 colon = test system: HCT-15 colon
HT29 colon = test system: HT29 colon

## COc1ccc(CCc2cc(OC)c(OC)c(OC)c2)cc1
TK-10 renal
  TGI: > 97.9 µM
SK-OV-3 ovarian
  TGI: > 32.2 µM
SR leukemia
  TGI: 0.78 µM
CCRF-CEM leukemia
  TGI: 12.4 µM
HOP-62 NSCLC
  TGI: 14 µM
HCT-116 colon
  TGI: 9.41 µM
NCI-H460 lung
  TGI: 9.82 µM
OVCAR-8 ovarian
  TGI: 32.2 µM
HCT-15 colon
  TGI: 10.2 µM
HT29 colon
  TGI: 1.44 µM

## COc1cc([N+](=O)[O-])c2ncccc2c1[N+](=O)[O-]
TK-10 renal
  GI50: 7.04 µM
  TGI: 19.6 µM
SK-OV-3 ovarian
  GI50: 12.6 µM
  TGI: 25.4 µM
SR leukemia
  GI50: 3.33 µM
  TGI: > 100 µM
CCRF-CEM leukemia
  GI50: 3.44 µM
  TGI: 28.6 µM
HOP-62 NSCLC
  GI50: 11.7 µM
  TGI: 24.8 µM
HCT-116 colon
  GI50: 3.47 µM
  TGI: 11.9 µM
NCI-H460 lung
  GI50: 6.07 µM
  TGI: 24.6 µM
OVCAR-8 ovarian
  GI50: 4.33 µM
  TGI: 15.9 µM
HCT-15 colon
  GI50: 5.39 µM
  TGI: 21.6 µM
HT29 colon
  GI50: 2.28 µM
  TGI: 5.52 µM

## CC/C=C\C/C=C\C[C@H](O)C/C=C1/C(=O)C=C[C@@H]1C/C=C\CCCC(=O)OC
TK-10 renal
  GI50: 2.95 µM
  TGI: 7.68 µM
SK-OV-3 ovarian
  GI50: 5.27 µM
  TGI: 15 µM
SR leukemia
  GI50: 0.281 µM
  TGI: 1.87 µM
CCRF-CEM leukemia
  GI50: 0.315 µM
  TGI: 1.77 µM
HOP-62 NSCLC
  GI50: 1.65 µM
  TGI: 4.1 µM
HCT-116 colon
  GI50: 0.841 µM
  TGI: 2.29 µM
NCI-H460 lung
  GI50: 3.2 µM
  TGI: 10.7 µM
OVCAR-8 ovarian
  GI50: 0.774 µM
  TGI: 13 µM
HCT-15 colon
  GI50: 0.494 µM
  TGI: 2.38 µM
HT29 colon
  GI50: 1.48 µM
  TGI: 3.21 µM

## Nc1ccc(S(=O)(=O)Nc2cnc3c(Cl)cccc3n2)cc1
TK-10 renal
  GI50: > 84.7 µM
  TGI: 589 µM
SK-OV-3 ovarian
  TGI: 163 µM
SR leukemia
  GI50: 23.1 µM
  TGI: > 750 µM
CCRF-CEM leukemia
  TGI: > 657 µM
HOP-62 NSCLC
  GI50: 24.6 µM
  TGI: 188 µM
HCT-116 colon
  GI50: 14.7 µM
  TGI: 609 µM
NCI-H460 lung
  GI50: > 77.9 µM
  TGI: > 750 µM
OVCAR-8 ovarian
  GI50: 40.1 µM
  TGI: > 750 µM
HCT-15 colon
  GI50: 43.5 µM
  TGI: > 562 µM
HT29 colon
  GI50: > 82.8 µM
  TGI: > 750 µM

## Cc1cc(Cl)ccc1Nc1nc(C(F)(F)F)ccc1C(=O)N1CCN(c2cccc(Cl)c2)CC1
TK-10 renal
  GI50: > 100 µM
  TGI: > 100 µM
SK-OV-3 ovarian
  GI50: > 100 µM
  TGI: > 100 µM
SR leukemia
  GI50: > 100 µM
  TGI: > 100 µM
CCRF-CEM leukemia
  GI50: > 100 µM
  TGI: > 100 µM
HOP-62 NSCLC
  GI50: > 100 µM
  TGI: > 100 µM
HCT-116 colon
  GI50: 37.3 µM
  TGI: > 100 µM
NCI-H460 lung
  GI50: > 100 µM
  TGI: > 100 µM
OVCAR-8 ovarian
  GI50: > 100 µM
  TGI: > 100 µM
HCT-15 colon
  GI50: > 100 µM
  TGI: > 100 µM
HT29 colon
  GI50: 46.1 µM
  TGI: > 100 µM

## COc1cc(/C=C(\C#N)C(N)=C(C#N)C#N)cc(O)c1O
TK-10 renal
  TGI: > 100 µM
SK-OV-3 ovarian
  TGI: > 100 µM
SR leukemia
  TGI: > 100 µM
CCRF-CEM leukemia
  TGI: > 81.1 µM
HOP-62 NSCLC
  TGI: > 100 µM
HCT-116 colon
  TGI: > 100 µM
NCI-H460 lung
  TGI: > 100 µM
OVCAR-8 ovarian
  TGI: > 100 µM
HCT-15 colon
  TGI: > 100 µM
HT29 colon
  TGI: > 100 µM

## CCSC(SCC)=C1C(=O)N(c2ccccc2)N=C1C
TK-10 renal
  TGI: 22.2 µM
SK-OV-3 ovarian
  TGI: 33.4 µM
SR leukemia
  TGI: 38.4 µM
CCRF-CEM leukemia
  TGI: 11 µM
HOP-62 NSCLC
  TGI: 53.7 µM
HCT-116 colon
  TGI: 28.3 µM
NCI-H460 lung
  TGI: 29.5 µM
OVCAR-8 ovarian
  TGI: 24.4 µM
HCT-15 colon
  TGI: 24.7 µM
HT29 colon
  TGI: 39.4 µM

## COC(=O)/C(=N/NC(N)=O)C(C(=O)OC)C(=O)C(=O)Nc1ccc(Cl)cc1 (stereo not drawn)
TK-10 renal
  TGI: > 100 µM
SK-OV-3 ovarian
  TGI: > 100 µM
SR leukemia
  TGI: 46.5 µM
CCRF-CEM leukemia
  TGI: > 75.5 µM
HOP-62 NSCLC
  TGI: > 100 µM
HCT-116 colon
  TGI: > 100 µM
NCI-H460 lung
  TGI: > 100 µM
OVCAR-8 ovarian
  TGI: > 100 µM
HCT-15 colon
  TGI: > 100 µM
HT29 colon
  TGI: > 100 µM
